In US20170291905A1, “ARGININE […] INHIBITORS AND USES THEREOF” (Epizyme, Inc., priority 2014, published 2017):

Target: full-length human PRMT6 (Flag- and His-tagged) (Homo sapiens, UniProt Q96LA8)
Assay: PRMT6 biochemical assay (3H-SAM Flashplate, histone H4 36-50 K44me1 peptide)
Details: 1 nM PRMT6, 30 min preincubation, 75 nM peptide
Procedure, shortened: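 Flag/His-tagged full-length PRMT6 (1 nM) pre-incubated 30 min RT with compound in 20 mM Bicine pH 7.6, then given 200 nM 3H-SAM, 250 nM cold SAM and 75 nM biotinylated H4 36-50 K44me1 peptide. Methylated peptide captured on streptavidin Flashplates and counted; % inhibition versus DMSO and 1 mM SAH controls, fitted to 3- or 4-parameter curves.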

Chain of full-length human PRMT6 (Flag- and His-tagged) (Q96LA8 with tags, fused parts or gaps): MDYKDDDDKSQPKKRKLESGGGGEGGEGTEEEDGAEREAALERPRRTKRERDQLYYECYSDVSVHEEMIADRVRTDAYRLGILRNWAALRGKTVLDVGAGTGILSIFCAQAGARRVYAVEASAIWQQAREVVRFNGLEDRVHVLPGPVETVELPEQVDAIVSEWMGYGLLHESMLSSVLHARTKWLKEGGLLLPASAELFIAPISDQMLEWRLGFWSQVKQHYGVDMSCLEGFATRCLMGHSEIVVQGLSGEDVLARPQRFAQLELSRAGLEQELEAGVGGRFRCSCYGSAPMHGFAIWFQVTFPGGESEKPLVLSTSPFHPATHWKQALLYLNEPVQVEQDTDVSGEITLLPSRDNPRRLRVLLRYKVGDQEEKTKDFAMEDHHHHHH

Row | IC50 | SMILES
1 | 42 nM | CCOCCOCC1(COCCOCC)CCC(c2n[nH]cc2CN(C)CCNC)CC1 [compound 39, N1-((3-(4,4-bis((2-ethoxyethoxy)methyl)cyclohexyl)-1H-pyrazol-4-yl)methyl)-N1,N2-dimethylethane-1,2-diamine]
2 | 90.9 nM | CN(C)CCN(C)Cc1c[nH]nc1[C@H]1CC[C@@]2(CC1)CC(C)(C)CO2 [compound 42, N1-((3-((5S,8S)-3,3-dimethyl-1-oxaspiro[4.5]decan-8-yl)-1H-pyrazol-4-yl)methyl)-N1,N2,N2-trimethylethane-1,2-diamine]
3 | 53.7 nM | CNCCN(C)Cc1c[nH]nc1C1CCC(COC)(COCC2CCOCC2)CC1 (stereo not drawn) [compound 45]
4 | 21.5 nM | CNCCN(C)Cc1c[nH]nc1C1CCC(CO)(CO)CC1 [compound 44, (4-(4-((methyl(2-(methylamino)ethyl)amino)methyl)-1H-pyrazol-3-yl)cyclohexane-1,1-diyl)dimethanol]
5 | 15.8 nM | CCC1(CC)C[C@]2(CC[C@H](c3n[nH]cc3CN(C)CCNC)CC2)NC1=O [compound 47, (5s,8s)-3,3-diethyl-8-(4-((methyl(2-(methylamino)ethyl)amino)methyl)-1H-pyrazol-3-yl)-1-azaspiro[4.5]decan-2-one]
6 | 10.2 nM | CC[C@H]1CC[C@@H](c2n[nH]cc2CN(C)CCNC)CC1 [compound 1]
7 | 59.7 nM | CNCCN(C)Cc1c[nH]nc1C1=CCC2(CC1)CC(C)(C)CO2 (stereo not drawn) [compound 46, N1-((3-(3,3-dimethyl-1-oxaspiro[4.5]dec-7-en-8-yl)-1H-pyrazol-4-yl)methyl)-N1,N2-dimethylethane-1,2-diamine]
8 | 73.6 nM | CCC1(CC)C[C@]2(CC[C@@H](c3n[nH]cc3CN(C)CCNC)CC2)NC1=O [compound 48, (5r,8r)-3,3-diethyl-8-(4-((methyl(2-(methylamino)ethyl)amino)methyl)-1H-pyrazol-3-yl)-1-azaspiro[4.5]decan-2-one]
9 | 288 nM | CN(C)CCN(C)Cc1c[nH]nc1[C@H]1CC[C@]2(CC1)CC(C)(C)CO2 [compound 43, N1-((3-((5r,8r)-3,3-dimethyl-1-oxaspiro[4.5]decan-8-yl)-1H-pyrazol-4-yl)methyl)-N1,N2,N2-trimethylethane-1,2-diamine]
10 | 37.4 nM | CNCCN(C)Cc1c[nH]nc1C1CCC(COCCC2CCOCC2)(COCCC2CCOCC2)CC1 [compound 40]
11 | 6.94 nM | CNCCN(C)Cc1c[nH]nc1C1CCC(COCC2CC2)(COCC2CC2)CC1 [compound 41, N1-((3-(4,4-bis((cyclopropylmethoxy)methyl)cyclohexyl)-1H-pyrazol-4-yl)methyl)-N1,N2-dimethylethane-1,2-diamine]
12 | 128 nM | CNCCN(C)Cc1ccnn1[C@H]1CC[C@@]2(CC1)CC(C)(C)CO2 [compound 49, N1-((1-((5s,8s)-3,3-dimethyl-1-oxaspiro[4.5]decan-8-yl)-1H-pyrazol-5-yl)methyl)-N1,N2-dimethylethane-1,2-diamine]
